Measurements as given in ChEMBL document CHEMBL3885881, “DrugMatrix”.

Species on record: Rattus norvegicus
Assay: DrugMatrix - Regimen: Daily Repeat
Assay type: toxicity, organism-based, Sprague-Dawley
Parameters: regimen Daily Repeat, gender Male, age 6-8 weeks
Settings: in vivo, po, route oral GAVAGE, vehicle .5 % CMC; for ABSOLUTE BASOPHIL / ABSOLUTE EOSINOPHIL / ABSOLUTE LYMPHOCYTE / ABSOLUTE MONOCYTE / ABSOLUTE SEGMENTED NEUTROPHIL / BASOPHIL / EOSINOPHIL / ERYTHROCYTE COUNT / HEMATOCRIT / HEMOGLOBIN / LEUKOCYTE COUNT / LYMPHOCYTE / MEAN CORPUSCULAR HEMOGLOBIN / MEAN CORPUSCULAR HEMOGLOBIN CONCENTRATION / MEAN CORPUSCULAR VOLUME / MONOCYTE / NEUTROPHIL / NUCLEATED RED BLOOD CELLS / PLATELET COUNT: tissue Blood; for ALANINE AMINOTRANSFERASE / ALBUMIN / ALKALINE PHOSPHATASE / ASPARTATE AMINOTRANSFERASE / BLOOD UREA NITROGEN / CARBON DIOXIDE / CHLORIDE / CHOLESTEROL / CREATINE PHOSPHOKINASE / CREATININE / GLUCOSE / LACTATE DEHYDROGENASE / LIPASE / PHOSPHORUS / POTASSIUM / SODIUM / TOTAL BILIRUBIN / TOTAL PROTEIN / URIC ACID: tissue Plasma
[1] = 10 mg/kg, 72 h, dose level Low, time 3 day
[2] = 10 mg/kg, 120 h, dose level Low, time 5 day
[3] = 350 mg/kg, 72 h, dose level High, time 3 day

CCC1(c2ccc(N)cc2)CCC(=O)NC1=O (centres undefined) [AMINOGLUTETHIMIDE]
ABSOLUTE BASOPHIL [1]: 0 CELLS/uL | ABSOLUTE EOSINOPHIL [1]: 0 CELLS/uL | ABSOLUTE LYMPHOCYTE [1]: 11710.67 CELLS/uL | ABSOLUTE MONOCYTE [1]: 267.33 CELLS/uL | ABSOLUTE SEGMENTED NEUTROPHIL [1]: 2622 CELLS/uL | BASOPHIL [1]: 0% | EOSINOPHIL [1]: 0% | ERYTHROCYTE COUNT [1]: 5.37 x10E6/uL | HEMATOCRIT [1]: 34.23% | HEMOGLOBIN [1]: 13.47 G/DL | LEUKOCYTE COUNT [1]: 14.6 x10E3/uL | LYMPHOCYTE [1]: 80.33% | MEAN CORPUSCULAR HEMOGLOBIN [1]: 25.1 pg | MEAN CORPUSCULAR HEMOGLOBIN CONCENTRATION [1]: 39.33 G/DL | MEAN CORPUSCULAR VOLUME [1]: 63.77 fL | MONOCYTE [1]: 1.67% | NEUTROPHIL [1]: 18% | NUCLEATED RED BLOOD CELLS [1]: 0 /100WBC | PLATELET COUNT [1]: 1364.33 x10E3/uL | ALANINE AMINOTRANSFERASE [1]: 54.67 u/L | ALBUMIN [1]: 4.07 G/DL | ALKALINE PHOSPHATASE [1]: 367 u/L | ASPARTATE AMINOTRANSFERASE [1]: 87.33 u/L | BLOOD UREA NITROGEN [1]: 17 mg/dL | CARBON DIOXIDE [1]: 26 mmol/L | CHLORIDE [1]: 102 MEQ/L | CHOLESTEROL [1]: 69.33 mg/dL | CREATINE PHOSPHOKINASE [1]: 357.33 u/L | CREATININE [1]: 0.16 mg/dL | GLUCOSE [1]: 160 mg/dL | LACTATE DEHYDROGENASE [1]: 241.67 u/L | LIPASE [1]: 9.33 u/L | PHOSPHORUS [1]: 13 mg/dL | POTASSIUM [1]: 6.52 MEQ/L | SODIUM [1]: 143.27 MEQ/L | TOTAL BILIRUBIN [1]: 0.2 mg/dL | TOTAL PROTEIN [1]: 5.67 G/DL | URIC ACID [1]: 1.83 mg/dL | ABSOLUTE BASOPHIL [2]: 0 CELLS/uL | ABSOLUTE EOSINOPHIL [2]: 0 CELLS/uL | ABSOLUTE LYMPHOCYTE [2]: 14655 CELLS/uL | ABSOLUTE MONOCYTE [2]: 54.33 CELLS/uL | ABSOLUTE SEGMENTED NEUTROPHIL [2]: 1457.33 CELLS/uL | BASOPHIL [2]: 0% | EOSINOPHIL [2]: 0% | ERYTHROCYTE COUNT [2]: 5.82 x10E6/uL | HEMATOCRIT [2]: 35.6% | HEMOGLOBIN [2]: 14.1 G/DL | LEUKOCYTE COUNT [2]: 16.17 x10E3/uL | LYMPHOCYTE [2]: 90.67% | MEAN CORPUSCULAR HEMOGLOBIN [2]: 24.23 pg | MEAN CORPUSCULAR HEMOGLOBIN CONCENTRATION [2]: 39.67 G/DL | MEAN CORPUSCULAR VOLUME [2]: 61.17 fL | MONOCYTE [2]: 0.33% | NEUTROPHIL [2]: 9% | NUCLEATED RED BLOOD CELLS [2]: 0 /100WBC | PLATELET COUNT [2]: 1044 x10E3/uL | ALANINE AMINOTRANSFERASE [2]: 56 u/L | ALBUMIN [2]: 4.33 G/DL | ALKALINE PHOSPHATASE [2]: 463 u/L | ASPARTATE AMINOTRANSFERASE [2]: 91.67 u/L | BLOOD UREA NITROGEN [2]: 16.67 mg/dL | CARBON DIOXIDE [2]: 27 mmol/L | CHLORIDE [2]: 100 MEQ/L | CHOLESTEROL [2]: 67 mg/dL | CREATINE PHOSPHOKINASE [2]: 282 u/L | CREATININE [2]: 0.2 mg/dL | GLUCOSE [2]: 155.67 mg/dL | LACTATE DEHYDROGENASE [2]: 347.67 u/L | LIPASE [2]: 12.33 u/L | PHOSPHORUS [2]: 11.8 mg/dL | POTASSIUM [2]: 6.27 MEQ/L | SODIUM [2]: 142.47 MEQ/L | TOTAL BILIRUBIN [2]: 0.17 mg/dL | TOTAL PROTEIN [2]: 5.87 G/DL | URIC ACID [2]: 1.8 mg/dL | ABSOLUTE BASOPHIL [3]: 0 CELLS/uL | ABSOLUTE EOSINOPHIL [3]: 0 CELLS/uL | ABSOLUTE LYMPHOCYTE [3]: 12308.33 CELLS/uL | ABSOLUTE MONOCYTE [3]: 135 CELLS/uL | ABSOLUTE SEGMENTED NEUTROPHIL [3]: 1890 CELLS/uL | BASOPHIL [3]: 0% | EOSINOPHIL [3]: 0% | ERYTHROCYTE COUNT [3]: 6.41 x10E6/uL | HEMATOCRIT [3]: 37.93% | HEMOGLOBIN [3]: 15.13 G/DL | LEUKOCYTE COUNT [3]: 14.33 x10E3/uL | LYMPHOCYTE [3]: 84.67% | MEAN CORPUSCULAR HEMOGLOBIN [3]: 23.57 pg | MEAN CORPUSCULAR HEMOGLOBIN CONCENTRATION [3]: 39.87 G/DL | MEAN CORPUSCULAR VOLUME [3]: 59.1 fL | MONOCYTE [3]: 1% | NEUTROPHIL [3]: 14.33% | NUCLEATED RED BLOOD CELLS [3]: 0 /100WBC | PLATELET COUNT [3]: 1180.67 x10E3/uL | ALANINE AMINOTRANSFERASE [3]: 78.33 u/L | ALBUMIN [3]: 3.73 G/DL | ALKALINE PHOSPHATASE [3]: 251.67 u/L | ASPARTATE AMINOTRANSFERASE [3]: 137.67 u/L | BLOOD UREA NITROGEN [3]: 12 mg/dL | CARBON DIOXIDE [3]: 27.33 mmol/L | CHLORIDE [3]: 100 MEQ/L | CHOLESTEROL [3]: 103.67 mg/dL | CREATINE PHOSPHOKINASE [3]: 398 u/L | CREATININE [3]: 0.14 mg/dL | GLUCOSE [3]: 120 mg/dL | LACTATE DEHYDROGENASE [3]: 202.67 u/L | LIPASE [3]: 10.33 u/L | PHOSPHORUS [3]: 12.03 mg/dL | POTASSIUM [3]: 5.62 MEQ/L | SODIUM [3]: 144.37 MEQ/L | TOTAL BILIRUBIN [3]: 0.13 mg/dL | TOTAL PROTEIN [3]: 5.23 G/DL | URIC ACID [3]: 1.73 mg/dL
